Assay results as given in the kinase profiling compilation of Christmann-Franck et al. (2016).

How the values were obtained:
Test in all cases: KINOMEscan competition binding
Settings in all cases: compound 10.0 µM
CASK (human) = CASK (human) (UniProt O14936)
FRK (human) = FRK (human) (UniProt P42685)
MAP2K7 (human) = MAP2K7 (human) (UniProt O14733)
ROCK1 (human) = ROCK1 (human) (UniProt Q13464)
[1] = test system: EGFR (human), P00533 [T790M]
STK32B (human) = STK32B (human) (UniProt Q9NY57)
CaMK1 (human) = CaMK1 (human) (UniProt Q14012)
PIP4K2B (human) = PIP4K2B (human) (UniProt P78356)
Sequence of PIP4K2B (human) (P78356 whole entry, looked up): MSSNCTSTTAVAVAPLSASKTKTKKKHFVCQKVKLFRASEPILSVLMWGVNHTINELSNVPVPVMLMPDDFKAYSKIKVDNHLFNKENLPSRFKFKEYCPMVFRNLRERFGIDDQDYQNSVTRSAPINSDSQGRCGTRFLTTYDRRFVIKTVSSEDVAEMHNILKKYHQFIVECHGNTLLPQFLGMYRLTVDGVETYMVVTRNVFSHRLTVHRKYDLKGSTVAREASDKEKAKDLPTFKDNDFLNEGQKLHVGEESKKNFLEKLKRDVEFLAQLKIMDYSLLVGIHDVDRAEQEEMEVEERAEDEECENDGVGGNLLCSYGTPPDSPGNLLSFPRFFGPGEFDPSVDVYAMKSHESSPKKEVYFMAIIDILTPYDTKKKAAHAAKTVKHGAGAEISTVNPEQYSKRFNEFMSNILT

CDK19 (human) = CDK19 (human) (UniProt Q9BWU1)
Sequence of CDK19 (human) (Q9BWU1 whole entry, looked up): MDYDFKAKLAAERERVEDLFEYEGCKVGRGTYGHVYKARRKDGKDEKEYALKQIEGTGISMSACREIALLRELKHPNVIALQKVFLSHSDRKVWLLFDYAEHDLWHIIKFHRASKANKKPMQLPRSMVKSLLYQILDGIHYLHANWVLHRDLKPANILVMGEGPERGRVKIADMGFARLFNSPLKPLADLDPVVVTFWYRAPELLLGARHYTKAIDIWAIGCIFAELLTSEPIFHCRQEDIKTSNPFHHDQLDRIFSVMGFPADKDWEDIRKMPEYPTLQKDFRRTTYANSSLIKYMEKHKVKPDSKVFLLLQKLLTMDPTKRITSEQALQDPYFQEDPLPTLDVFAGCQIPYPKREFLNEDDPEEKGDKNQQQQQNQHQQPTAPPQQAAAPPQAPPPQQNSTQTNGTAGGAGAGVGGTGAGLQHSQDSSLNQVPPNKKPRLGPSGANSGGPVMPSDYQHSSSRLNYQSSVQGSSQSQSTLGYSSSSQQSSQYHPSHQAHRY

IKBKB (human) = IKBKB (human) (UniProt O14920)
LATS2 (human) = LATS2 (human) (UniProt Q9NRM7)
CLK3 (human) = CLK3 (human) (UniProt P49761)
PKMYT1 (human) = PKMYT1 (human) (UniProt Q99640)
Sequence of PKMYT1 (human) (Q99640 whole entry, looked up): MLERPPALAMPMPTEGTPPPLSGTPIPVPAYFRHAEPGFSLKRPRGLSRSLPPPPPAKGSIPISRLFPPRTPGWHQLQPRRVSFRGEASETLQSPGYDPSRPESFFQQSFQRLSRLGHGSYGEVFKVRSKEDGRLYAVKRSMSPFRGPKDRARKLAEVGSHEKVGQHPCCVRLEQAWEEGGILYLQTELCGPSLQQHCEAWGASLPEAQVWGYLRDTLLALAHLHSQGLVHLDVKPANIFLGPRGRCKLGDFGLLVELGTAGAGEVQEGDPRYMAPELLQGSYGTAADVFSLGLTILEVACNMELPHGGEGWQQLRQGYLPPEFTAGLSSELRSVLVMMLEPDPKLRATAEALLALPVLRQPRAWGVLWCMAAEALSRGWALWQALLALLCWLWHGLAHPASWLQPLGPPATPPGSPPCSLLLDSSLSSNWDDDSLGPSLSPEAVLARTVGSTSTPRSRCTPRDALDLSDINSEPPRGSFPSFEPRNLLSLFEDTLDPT

PAK3 (human) = PAK3 (human) (UniProt O75914)
SRPK2 (human) = SRPK2 (human) (UniProt P78362)
TAOK3 (human) = TAOK3 (human) (UniProt Q9H2K8)
LIMK2 (human) = LIMK2 (human) (UniProt P53671)
RPS6KA5 KD2 (human) = RPS6KA5 KD2 (human) (UniProt O75582)
RPS6KA2 KD2 (human) = RPS6KA2 KD2 (human) (UniProt Q15349)
PAK6 (human) = PAK6 (human) (UniProt Q9NQU5)
BMPR1B (human) = BMPR1B (human) (UniProt O00238)
MAP2K4 (human) = MAP2K4 (human) (UniProt P45985)
Sequence of MAP2K4 (human) (P45985 whole entry, looked up): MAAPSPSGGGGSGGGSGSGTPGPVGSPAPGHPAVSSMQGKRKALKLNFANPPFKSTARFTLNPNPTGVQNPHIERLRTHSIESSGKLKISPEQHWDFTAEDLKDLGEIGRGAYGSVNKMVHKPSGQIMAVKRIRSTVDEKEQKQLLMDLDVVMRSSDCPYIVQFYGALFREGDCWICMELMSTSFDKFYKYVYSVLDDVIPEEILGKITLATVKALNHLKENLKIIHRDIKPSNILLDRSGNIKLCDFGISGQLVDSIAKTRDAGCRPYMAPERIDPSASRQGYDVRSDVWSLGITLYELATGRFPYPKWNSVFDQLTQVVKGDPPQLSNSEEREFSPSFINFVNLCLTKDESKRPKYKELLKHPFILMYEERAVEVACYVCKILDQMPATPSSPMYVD

MARK4 (human) = MARK4 (human) (UniProt Q96L34)
Sequence of MARK4 (human) (Q96L34 whole entry, looked up): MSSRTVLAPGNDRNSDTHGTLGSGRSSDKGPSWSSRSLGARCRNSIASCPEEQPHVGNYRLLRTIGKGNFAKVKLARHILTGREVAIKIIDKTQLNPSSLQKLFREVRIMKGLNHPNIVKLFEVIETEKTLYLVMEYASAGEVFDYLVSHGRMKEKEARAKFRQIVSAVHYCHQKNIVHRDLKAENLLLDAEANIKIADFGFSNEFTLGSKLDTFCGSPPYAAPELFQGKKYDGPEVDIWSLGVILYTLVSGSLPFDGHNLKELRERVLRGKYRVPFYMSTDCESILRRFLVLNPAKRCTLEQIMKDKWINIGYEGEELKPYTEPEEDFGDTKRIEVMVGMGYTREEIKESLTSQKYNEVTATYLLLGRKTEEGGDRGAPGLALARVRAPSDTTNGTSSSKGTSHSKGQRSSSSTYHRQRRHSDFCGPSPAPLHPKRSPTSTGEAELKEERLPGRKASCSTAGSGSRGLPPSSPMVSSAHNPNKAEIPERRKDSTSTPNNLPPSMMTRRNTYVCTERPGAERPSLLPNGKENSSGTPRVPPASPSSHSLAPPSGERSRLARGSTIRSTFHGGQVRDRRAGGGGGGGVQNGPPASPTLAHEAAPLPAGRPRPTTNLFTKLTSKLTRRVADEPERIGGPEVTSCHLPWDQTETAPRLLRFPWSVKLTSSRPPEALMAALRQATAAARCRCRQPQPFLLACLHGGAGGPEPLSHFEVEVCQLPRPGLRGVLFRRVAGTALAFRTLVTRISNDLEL

PTK6 (human) = PTK6 (human) (UniProt Q13882)
MELK (human) = MELK (human) (UniProt Q14680)
EPHA1 (human) = EPHA1 (human) (UniProt P21709)
CDKL1 (human) = CDKL1 (human) (UniProt Q00532)
PIK3CG (human) = PIK3CG (human) (UniProt P48736)
Sequence of PIK3CG (human) (P48736 whole entry, looked up): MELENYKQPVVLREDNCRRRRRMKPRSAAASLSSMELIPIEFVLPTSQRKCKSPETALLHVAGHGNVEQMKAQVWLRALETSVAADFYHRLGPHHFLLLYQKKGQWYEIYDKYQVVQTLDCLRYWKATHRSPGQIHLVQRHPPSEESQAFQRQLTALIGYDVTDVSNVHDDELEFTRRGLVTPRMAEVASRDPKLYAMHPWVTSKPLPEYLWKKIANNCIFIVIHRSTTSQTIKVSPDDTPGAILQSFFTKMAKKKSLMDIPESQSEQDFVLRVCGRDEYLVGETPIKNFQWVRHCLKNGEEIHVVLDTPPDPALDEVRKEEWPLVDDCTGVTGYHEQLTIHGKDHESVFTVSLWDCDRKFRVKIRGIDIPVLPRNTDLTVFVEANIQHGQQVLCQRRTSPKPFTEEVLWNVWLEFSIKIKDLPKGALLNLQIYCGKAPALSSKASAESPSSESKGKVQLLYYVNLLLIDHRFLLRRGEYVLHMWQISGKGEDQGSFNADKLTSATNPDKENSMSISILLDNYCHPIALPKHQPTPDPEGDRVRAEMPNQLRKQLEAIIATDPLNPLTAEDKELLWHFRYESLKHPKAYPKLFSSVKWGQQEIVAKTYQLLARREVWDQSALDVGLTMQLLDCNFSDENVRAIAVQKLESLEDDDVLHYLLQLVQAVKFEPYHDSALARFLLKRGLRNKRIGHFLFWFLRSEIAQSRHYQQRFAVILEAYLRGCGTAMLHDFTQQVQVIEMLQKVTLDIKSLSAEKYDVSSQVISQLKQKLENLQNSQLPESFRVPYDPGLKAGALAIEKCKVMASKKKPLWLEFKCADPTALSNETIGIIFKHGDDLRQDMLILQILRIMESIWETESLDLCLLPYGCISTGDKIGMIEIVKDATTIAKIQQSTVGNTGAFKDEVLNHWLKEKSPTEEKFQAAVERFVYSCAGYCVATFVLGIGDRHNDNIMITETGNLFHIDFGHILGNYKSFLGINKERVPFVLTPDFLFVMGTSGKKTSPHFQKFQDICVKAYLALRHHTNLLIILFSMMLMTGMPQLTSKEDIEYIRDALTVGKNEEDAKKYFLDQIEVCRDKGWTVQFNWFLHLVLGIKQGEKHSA

RIPK4 (human) = RIPK4 (human) (UniProt P57078)
PRKD3 (human) = PRKD3 (human) (UniProt O94806)
[2] = target: JAK2 JH1 catalytic (human) (UniProt O60674)
MST4 (human) = MST4 (human) (UniProt Q9P289)
ROCK2 (human) = ROCK2 (human) (UniProt O75116)
BLK (human) = BLK (human) (UniProt P51451)
Sequence of BLK (human) (P51451 whole entry, looked up): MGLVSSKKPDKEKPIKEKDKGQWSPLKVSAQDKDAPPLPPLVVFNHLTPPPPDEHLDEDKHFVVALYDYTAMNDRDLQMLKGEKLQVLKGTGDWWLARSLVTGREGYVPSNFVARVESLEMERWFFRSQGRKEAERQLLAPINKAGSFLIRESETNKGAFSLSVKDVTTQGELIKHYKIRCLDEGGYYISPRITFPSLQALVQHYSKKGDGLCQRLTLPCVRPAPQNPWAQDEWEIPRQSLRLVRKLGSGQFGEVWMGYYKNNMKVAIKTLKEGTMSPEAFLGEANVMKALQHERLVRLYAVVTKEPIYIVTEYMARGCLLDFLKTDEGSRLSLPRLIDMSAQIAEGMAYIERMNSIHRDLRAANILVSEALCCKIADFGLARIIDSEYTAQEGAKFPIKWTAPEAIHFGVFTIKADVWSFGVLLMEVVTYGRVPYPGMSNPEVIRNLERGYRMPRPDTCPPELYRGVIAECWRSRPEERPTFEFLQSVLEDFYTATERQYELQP

Sequence of STK32B (human) (Q9NY57 whole entry, looked up): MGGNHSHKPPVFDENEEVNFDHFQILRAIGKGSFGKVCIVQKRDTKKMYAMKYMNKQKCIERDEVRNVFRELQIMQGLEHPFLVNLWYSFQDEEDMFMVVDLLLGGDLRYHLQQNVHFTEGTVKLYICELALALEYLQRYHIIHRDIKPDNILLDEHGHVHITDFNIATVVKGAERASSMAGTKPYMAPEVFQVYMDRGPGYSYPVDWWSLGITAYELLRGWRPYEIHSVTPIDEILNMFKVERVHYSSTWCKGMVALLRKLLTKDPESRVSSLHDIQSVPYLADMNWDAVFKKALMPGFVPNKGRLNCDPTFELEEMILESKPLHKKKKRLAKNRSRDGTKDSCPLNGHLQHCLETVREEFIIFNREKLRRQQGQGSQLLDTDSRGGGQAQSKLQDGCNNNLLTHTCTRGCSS
Sequence of MAP2K7 (human) (O14733 whole entry, looked up): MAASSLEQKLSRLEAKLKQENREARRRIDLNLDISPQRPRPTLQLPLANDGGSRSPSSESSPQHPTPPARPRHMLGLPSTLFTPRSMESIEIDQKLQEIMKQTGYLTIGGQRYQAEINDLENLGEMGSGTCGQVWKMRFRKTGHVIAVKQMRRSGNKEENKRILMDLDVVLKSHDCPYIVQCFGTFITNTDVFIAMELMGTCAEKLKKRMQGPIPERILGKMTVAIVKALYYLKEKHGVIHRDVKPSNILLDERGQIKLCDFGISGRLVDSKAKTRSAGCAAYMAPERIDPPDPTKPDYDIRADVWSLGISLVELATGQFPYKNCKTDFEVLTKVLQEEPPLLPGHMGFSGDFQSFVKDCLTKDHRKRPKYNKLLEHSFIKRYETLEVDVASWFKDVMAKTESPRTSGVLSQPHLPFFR

SMILES | kinase still bound, per cent of control (CASK (human)) | kinase still bound, per cent of control (FRK (human)) | kinase still bound, per cent of control (MAP2K7 (human)) | kinase still bound, per cent of control (ROCK1 (human)) | kinase still bound, per cent of control [1] | kinase still bound, per cent of control (STK32B (human)) | kinase still bound, per cent of control (CaMK1 (human)) | kinase still bound, per cent of control (PIP4K2B (human)) | kinase still bound, per cent of control (CDK19 (human)) | kinase still bound, per cent of control (IKBKB (human)) | kinase still bound, per cent of control (LATS2 (human)) | kinase still bound, per cent of control (CLK3 (human)) | kinase still bound, per cent of control (PKMYT1 (human)) | kinase still bound, per cent of control (PAK3 (human)) | kinase still bound, per cent of control (SRPK2 (human)) | kinase still bound, per cent of control (TAOK3 (human)) | kinase still bound, per cent of control (LIMK2 (human)) | kinase still bound, per cent of control (RPS6KA5 KD2 (human)) | kinase still bound, per cent of control (RPS6KA2 KD2 (human)) | kinase still bound, per cent of control (PAK6 (human)) | also measured
O=c1cc(N2CCOCC2)oc2c(-c3cccc4c3sc3ccccc34)cccc12 | 100% | 91% | 100% | 100% | 100% | 95% | 91% | 100% | 100% | 100% | 100% | 100% | 92% | 100% | 78% | 97% | 100% | 80% | 83% | 94% | kinase still bound, per cent of control (BMPR1B (human)): 35%; kinase still bound, per cent of control (MAP2K4 (human)): 100%; kinase still bound, per cent of control (MARK4 (human)): 100%; kinase still bound, per cent of control (PTK6 (human)): 98%; kinase still bound, per cent of control (MELK (human)): 100%; kinase still bound, per cent of control (EPHA1 (human)): 92%; kinase still bound, per cent of control (CDKL1 (human)): 87%; kinase still bound, per cent of control (PIK3CG (human)): 1.3%; kinase still bound, per cent of control (RIPK4 (human)): 100%; kinase still bound, per cent of control (PRKD3 (human)): 100%; kinase still bound, per cent of control [2]: 67%; kinase still bound, per cent of control (MST4 (human)): 95%; kinase still bound, per cent of control (ROCK2 (human)): 100%; kinase still bound, per cent of control (BLK (human)): 100%
CN(C)C/C=C/C(=O)Nc1ccc(C(=O)Nc2cccc(Nc3nccc(-c4cccnc4)n3)c2)cc1 | 98% | 100% | 80% | 48% | 65% | 100% | 94% | 56% | 100% | 65% | 86% | 100% | 100% | 100% | 100% | 37% | 92% | 98% | 100% | 46% | kinase still bound, per cent of control (BMPR1B (human)): 28%; kinase still bound, per cent of control (MAP2K4 (human)): 9.8%; kinase still bound, per cent of control (MARK4 (human)): 26%; kinase still bound, per cent of control (PTK6 (human)): 100%; kinase still bound, per cent of control (MELK (human)): 58%; kinase still bound, per cent of control (EPHA1 (human)): 76%; kinase still bound, per cent of control (CDKL1 (human)): 41%; kinase still bound, per cent of control (PIK3CG (human)): 13%; kinase still bound, per cent of control (RIPK4 (human)): 33%; kinase still bound, per cent of control (PRKD3 (human)): 94%; kinase still bound, per cent of control [2]: 8.4%; kinase still bound, per cent of control (MST4 (human)): 100%; kinase still bound, per cent of control (ROCK2 (human)): 41%; kinase still bound, per cent of control (BLK (human)): 100%
